The target in the test is Proto-oncogene tyrosine-protein kinase Src (Homo sapiens, UniProt P12931). The experiment in a line: Homogeneous Time-resolved Fluorescence (HTRF) Assay. On the procedure:
Kinase assays were performed using the europium/APC detection format (LANCE, Perkin Elmer). HTRF is based on the proximity of europium cryptate (donor fluorophore)-labeled antiphosphotyrosine and streptavidin labeled with APC(allophycocyanin), which have been brought together by a binding reaction.
A general note: TR-FRET usually uses a lanthanide donor and a delayed reading to cut background.

The record followed here is BindingDB's records for doi:10.1016/j.bmcl.2005.01.004 (Wyeth-Ayerst Research, 2005).

Sequence of Proto-oncogene tyrosine-protein kinase Src (P12931 2-536 limits assumed): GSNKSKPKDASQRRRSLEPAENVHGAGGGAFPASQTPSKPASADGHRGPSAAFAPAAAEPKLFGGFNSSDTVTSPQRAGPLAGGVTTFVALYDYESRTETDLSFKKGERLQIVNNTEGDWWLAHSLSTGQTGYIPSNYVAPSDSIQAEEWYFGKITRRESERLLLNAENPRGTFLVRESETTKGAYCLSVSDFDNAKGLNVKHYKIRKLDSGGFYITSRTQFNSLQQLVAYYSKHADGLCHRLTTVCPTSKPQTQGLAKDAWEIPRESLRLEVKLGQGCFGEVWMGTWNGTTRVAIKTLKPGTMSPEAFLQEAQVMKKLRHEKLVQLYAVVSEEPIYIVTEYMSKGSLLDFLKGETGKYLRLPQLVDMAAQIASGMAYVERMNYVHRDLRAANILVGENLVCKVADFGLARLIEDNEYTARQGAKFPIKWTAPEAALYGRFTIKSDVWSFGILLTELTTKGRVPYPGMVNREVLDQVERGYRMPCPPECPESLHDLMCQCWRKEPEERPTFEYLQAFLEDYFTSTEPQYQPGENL

The compound `COc1cc2c(Nc3cc(OC)c(OC)c(OC)c3)c(C#N)cnc2cc1/C=C/c1cc[n+]([O-])cc1` [4-[(E)-2-{3-cyano-6-methoxy-4-[(3,4,5-trimethoxyphenyl)amino]quinolin-7-yl}ethenyl]-1-oxidopyridin-1-ium] had an IC50 of 0.011 µM.

Consider `N#Cc1cnc2cc(/C=C/c3ccncc3)ccc2c1NCc1cc(Cl)cc(Cl)c1` [4-{[(3,5-dichlorophenyl)methyl]amino}-7-[(E)-2-(pyridin-4-yl)ethenyl]quinoline-3-carbonitrile], for which the IC50 is 1 µM.

For orientation: IC50 means the concentration needed to halve the response being measured.
